Test results as given in patent US8710065B2, “Tricyclic inhibitors of kinases” (AbbVie Inc., priority 2011, dated 2014).

target: T1, GST-tagged-Wee1 kinase (Homo sapiens, UniProt P30291); assay: Wee1 time-resolved fluorescence equilibrium binding assay (displacement of Oregon Green-labeled ATP-competitive kinase probe); details: read-out: Wee-1 inhibition (Ki)
T1 construct: purchased Carnabio (Carna Biosciences) 05-177
In short: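 Time-resolved fluorescence equilibrium binding with GST-Wee1, measuring displacement of a rapidly reversible Oregon Green-labelled ATP-competitive probe by competitive inhibitors; values reported as Ki.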

T1 sequence (P30291 whole entry): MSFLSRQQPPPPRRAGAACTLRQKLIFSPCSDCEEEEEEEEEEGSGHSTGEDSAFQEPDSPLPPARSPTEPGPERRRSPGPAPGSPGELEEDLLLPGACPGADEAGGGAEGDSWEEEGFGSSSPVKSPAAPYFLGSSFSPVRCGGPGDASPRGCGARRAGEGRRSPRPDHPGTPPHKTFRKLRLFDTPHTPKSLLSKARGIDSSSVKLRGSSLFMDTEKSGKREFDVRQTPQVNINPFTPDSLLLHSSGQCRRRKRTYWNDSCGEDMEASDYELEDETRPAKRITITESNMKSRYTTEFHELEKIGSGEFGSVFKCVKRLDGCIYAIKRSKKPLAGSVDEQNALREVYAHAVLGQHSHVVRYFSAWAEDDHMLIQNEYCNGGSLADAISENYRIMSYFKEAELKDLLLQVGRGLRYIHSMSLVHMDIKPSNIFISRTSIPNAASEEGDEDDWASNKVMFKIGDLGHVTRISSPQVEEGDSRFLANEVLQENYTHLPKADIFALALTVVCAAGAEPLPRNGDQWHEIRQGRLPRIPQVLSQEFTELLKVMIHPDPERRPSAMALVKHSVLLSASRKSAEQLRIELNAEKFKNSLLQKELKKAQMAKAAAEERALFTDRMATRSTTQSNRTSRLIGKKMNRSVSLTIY

| Structure (SMILES) | Ki [µM] |
| --- | --- |
| CN1Cc2cc(Nc3ncc4c(=O)n(-c5c(Cl)cccc5Cl)c5nccn5c4n3)ccc2C1(C)C [Example 178, 6-(2,6-dichlorophenyl)-2-[(1,1,2-trimethyl-2,3-dihydro-1H-isoindol-5-yl)amino]imidazo[1,2-a]pyrimido[5,4-e]pyrimidin-5(6H)-one] | < 0.01 |
| O=C1Nc2ccc(Nc3ncc4c(=O)n(-c5c(Cl)cccc5Cl)c5nccn5c4n3)cc2C[C@@H]2CNC[C@@H]12 [Example 179, (3aS,10aS)-8-{[6-(2,6-dichlorophenyl)-5-oxo-5,6-dihydroimidazo[1,2-a]pyrimido[5,4-e]pyrimidin-2-yl]amino}-2,3,3a,5,10,10a-hexahydropyrrolo[3,4-c][1]benzazepin-4(1H)-one] | < 0.01 |
| O=C1CCC(c2ccc(Nc3ncc4c(=O)n(-c5c(Cl)cccc5Cl)c5nccn5c4n3)cc2)=NN1 [Example 180, 6-(2,6-dichlorophenyl)-2-{[4-(6-oxo-1,4,5,6-tetrahydropyridazin-3-yl)phenyl]amino}imidazo[1,2-a]pyrimido[5,4-e]pyrimidin-5(6H)-one] | < 0.01 |
| O=c1c2cnc(Nc3ccc4snnc4c3)nc2n2ccnc2n1-c1c(Cl)cccc1Cl [Example 181, 2-(1,2,3-benzothiadiazol-5-ylamino)-6-(2,6-dichlorophenyl)imidazo[1,2-a]pyrimido[5,4-e]pyrimidin-5(6H)-one] | 0.01 to 0.1 |
| O=c1c2cnc(Nc3ccc4ncsc4c3)nc2n2ccnc2n1-c1c(Cl)cccc1Cl [Example 182, 2-(1,3-benzothiazol-6-ylamino)-6-(2,6-dichlorophenyl)imidazo[1,2-a]pyrimido[5,4-e]pyrimidin-5(6H)-one] | < 0.01 |
| COCCN(CCOC)c1ccc(Nc2ncc3c(=O)n(-c4ccccc4Cl)c4nccn4c3n2)cc1 [Example 183, 2-({4-[bis(2-methoxyethyl)amino]phenyl}amino)-6-(2-chlorophenyl)imidazo[1,2-a]pyrimido[5,4-e]pyrimidin-5(6H)-one] | 0.01 to 0.1 |
| O=c1c2cnc(Nc3ccc4c(c3)CCN(C3CC3)CC4)nc2n2ccnc2n1-c1ccccc1Cl [Example 184, 6-(2-chlorophenyl)-2-[(3-cyclopropyl-2,3,4,5-tetrahydro-1H-3-benzazepin-7-yl)amino]imidazo[1,2-a]pyrimido[5,4-e]pyrimidin-5(6H)-one] | < 0.01 |
| O=c1c2cnc(Nc3ccc4c(c3)CCN(CC(F)F)CC4)nc2n2ccnc2n1-c1ccccc1Cl [Example 185, 6-(2-chlorophenyl)-2-{[3-(2,2-difluoroethyl)-2,3,4,5-tetrahydro-1H-3-benzazepin-7-yl]amino}imidazo[1,2-a]pyrimido[5,4-e]pyrimidin-5(6H)-one] | < 0.01 |
| CN1CCN(c2ccc(Nc3ncc4c(=O)n(-c5c(F)cc(F)cc5Cl)c5nccn5c4n3)cc2)CC1 [Example 186, 6-(2-chloro-4,6-difluorophenyl)-2-{[4-(4-methylpiperazin-1-yl)phenyl]amino}imidazo[1,2-a]pyrimido[5,4-e]pyrimidin-5(6H)-one] | < 0.01 |
| CN1Cc2cc(Nc3ncc4c(=O)n(-c5c(F)cc(F)cc5Cl)c5nccn5c4n3)ccc2C(C)(C)C1 [Example 187, 6-(2-chloro-4,6-difluorophenyl)-2-[(2,4,4-trimethyl-1,2,3,4-tetrahydroisoquinolin-7-yl)amino]imidazo[1,2-a]pyrimido[5,4-e]pyrimidin-5(6H)-one] | < 0.01 |
| CN(C)C1Cc2ccc(Nc3ncc4c(=O)n(-c5c(F)cc(F)cc5Cl)c5nccn5c4n3)cc2C1 (stereo not drawn) [Example 188, 6-(2-chloro-4,6-difluorophenyl)-2-{[2-(dimethylamino)-2,3-dihydro-1H-inden-5-yl]amino}imidazo[1,2-a]pyrimido[5,4-e]pyrimidin-5(6H)-one] | < 0.01 |
| O=c1c2cnc(Nc3ccc(NCCCN4CCOCC4)cc3)nc2n2ccnc2n1-c1ccccc1Cl [Example 189, 6-(2-chlorophenyl)-2-[(4-{[3-(morpholin-4-yl)propyl]amino}phenyl)amino]imidazo[1,2-a]pyrimido[5,4-e]pyrimidin-5(6H)-one] | 0.01 to 0.1 |
| O=c1c2cnc(Nc3ccc(N4CCC(N5CCCC5)CC4)cc3)nc2n2ccnc2n1-c1ccccc1Cl [Example 190, 6-(2-chlorophenyl)-2-({4-[4-(pyrrolidin-1-yl)piperidin-1-yl]phenyl}amino)imidazo[1,2-a]pyrimido[5,4-e]pyrimidin-5(6H)-one] | < 0.01 |
| CN(C)C1CCN(c2ccc(Nc3ncc4c(=O)n(-c5ccccc5Cl)c5nccn5c4n3)cc2)CC1 [Example 191, 6-(2-chlorophenyl)-2-({4-[4-(dimethylamino)piperidin-1-yl]phenyl}amino)imidazo[1,2-a]pyrimido[5,4-e]pyrimidin-5(6H)-one] | < 0.01 |
| CN1CCCC1CCNc1ccc(Nc2ncc3c(=O)n(-c4ccccc4Cl)c4nccn4c3n2)cc1 (stereo not drawn) [Example 192, 6-(2-chlorophenyl)-2-[(4-{[2-(1-methylpyrrolidin-2-yl)ethyl]amino}phenyl)amino]imidazo[1,2-a]pyrimido[5,4-e]pyrimidin-5(6H)-one] | 0.01 to 0.1 |
| CN(C)C1CCC(OC(=O)c2ccc(Nc3ncc4c(=O)n(-c5c(Cl)cccc5Cl)c5nccn5c4n3)cc2)CC1 (stereo not drawn) [Example 193, 4-(dimethylamino)cyclohexyl 4-{[6-(2,6-dichlorophenyl)-5-oxo-5,6-dihydroimidazo[1,2-a]pyrimido[5,4-e]pyrimidin-2-yl]amino}benzoate] | < 0.01 |
| O=c1c2cnc(Nc3ccc4[nH]ncc4c3)nc2n2ccnc2n1-c1c(Cl)cccc1Cl [Example 194, 6-(2,6-dichlorophenyl)-2-(1H-indazol-5-ylamino)imidazo[1,2-a]pyrimido[5,4-e]pyrimidin-5(6H)-one] | < 0.01 |
| CC(C)[C@H]1CN(c2ccc(Nc3ncc4c(=O)n(-c5c(Cl)cccc5Cl)c5nccn5c4n3)cc2)CCN1 [Example 195, 6-(2,6-dichlorophenyl)-2-({4-[(3S)-3-(propan-2-yl)piperazin-1-yl]phenyl}amino)imidazo[1,2-a]pyrimido[5,4-e]pyrimidin-5(6H)-one] | < 0.01 |
| CC(C)CC(N(C)C)C1(c2ccc(Nc3ncc4c(=O)n(-c5c(Cl)cccc5Cl)c5nccn5c4n3)cc2)CCC1 (stereo not drawn) [Example 196] | < 0.01 |
| CNc1nc(C)c(-c2ccc(Nc3ncc4c(=O)n(-c5c(Cl)cccc5Cl)c5nccn5c4n3)cc2)s1 [Example 197, 6-(2,6-dichlorophenyl)-2-({4-[4-methyl-2-(methylamino)-1,3-thiazol-5-yl]phenyl}amino)imidazo[1,2-a]pyrimido[5,4-e]pyrimidin-5(6H)-one] | < 0.01 |
| O=c1c2cnc(Nc3ccc(N4CCNCC4)nc3)nc2n2ccnc2n1-c1c(Cl)cccc1Cl [Example 198, 6-(2,6-dichlorophenyl)-2-{[6-(piperazin-1-yl)pyridin-3-yl]amino}imidazo[1,2-a]pyrimido[5,4-e]pyrimidin-5(6H)-one] | < 0.01 |
| O=c1c2cnc(Nc3ccc4cn[nH]c4c3)nc2n2ccnc2n1-c1c(Cl)cccc1Cl [Example 199, 6-(2,6-dichlorophenyl)-2-(1H-indazol-6-ylamino)imidazo[1,2-a]pyrimido[5,4-e]pyrimidin-5(6H)-one] | < 0.01 |
| O=C(O[C@@H]1CCCN2CCCCC12)c1ccc(Nc2ncc3c(=O)n(-c4c(Cl)cccc4Cl)c4nccn4c3n2)cc1 (stereo partly drawn) [Example 200, (1R)-octahydro-2H-quinolizin-1-yl 4-{[6-(2,6-dichlorophenyl)-5-oxo-5,6-dihydroimidazo[1,2-a]pyrimido[5,4-e]pyrimidin-2-yl]amino}benzoate] | < 0.01 |
| CN(CCOC(=O)c1ccc(Nc2ncc3c(=O)n(-c4c(Cl)cccc4Cl)c4nccn4c3n2)cc1)C1CC1 [Example 201, 2-[cyclopropyl(methyl)amino]ethyl 4-{[6-(2,6-dichlorophenyl)-5-oxo-5,6-dihydroimidazo[1,2-a]pyrimido[5,4-e]pyrimidin-2-yl]amino}benzoate] | < 0.01 |
| CCN1C[C@H]2C[C@@H](C1)CN(C(=O)c1ccc(Nc3ncc4c(=O)n(-c5c(Cl)cccc5Cl)c5nccn5c4n3)cc1)C2 [Example 202, 6-(2,6-dichlorophenyl)-2-[(4-{[(1R,5S)-7-ethyl-3,7-diazabicyclo[3.3.1]non-3-yl]carbonyl}phenyl)amino]imidazo[1,2-a]pyrimido[5,4-e]pyrimidin-5(6H)-one] | < 0.01 |
| O=c1c2cnc(Nc3cc(F)c(N4CCNCC4)c(F)c3)nc2n2ccnc2n1-c1ccccc1Cl [Example 203, 6-(2-chlorophenyl)-2-{[3,5-difluoro-4-(piperazin-1-yl)phenyl]amino}imidazo[1,2-a]pyrimido[5,4-e]pyrimidin-5(6H)-one] | < 0.01 |
| O=c1c2cnc(Nc3ccc(N4CCN5CCC[C@@H]5C4)cc3)nc2n2ccnc2n1-c1ccccc1Cl [Example 204, 6-(2-chlorophenyl)-2-({4-[(8aR)-hexahydropyrrolo[1,2-a]pyrazin-2(1H)-yl]phenyl}amino)imidazo[1,2-a]pyrimido[5,4-e]pyrimidin-5(6H)-one] | < 0.01 |
| O=c1c2cnc(Nc3ccc4c(c3)CNCC43CC3)nc2n2ccnc2n1-c1ccc(O)cc1 [Example 205, 2-(2′,3′-dihydro-1′H-spiro[cyclopropane-1,4′-isoquinolin]-7′-ylamino)-6-(4-hydroxyphenyl)imidazo[1,2-a]pyrimido[5,4-e]pyrimidin-5(6H)-one] | < 0.01 |
| CS(=O)(=O)N1Cc2cc(Nc3ncc4c(=O)n(-c5c(Cl)cccc5Cl)c5nccn5c4n3)ccc2C2(CC2)C1 [Example 206, 6-(2,6-dichlorophenyl)-2-{[2′-(methylsulfonyl)-2′,3′-dihydro-1′H-spiro[cyclopropane-1,4′-isoquinolin]-7′-yl]amino}imidazo[1,2-a]pyrimido[5,4-e]pyrimidin-5(6H)-one] | < 0.01 |
| CC(=O)N1Cc2cc(Nc3ncc4c(=O)n(-c5c(Cl)cccc5Cl)c5nccn5c4n3)ccc2C2(CC2)C1 [Example 207, 2-[(2′-acetyl-2′,3′-dihydro-1′H-spiro[cyclopropane-1,4′-isoquinolin]-7′-yl)amino]-6-(2,6-dichlorophenyl)imidazo[1,2-a]pyrimido[5,4-e]pyrimidin-5(6H)-one] | < 0.01 |
